# Assay results as given in patent US20240269139A1, “COMPOUNDS FOR TARGETED PROTEIN DEGRADATION OF KINASES” (DANA-FARBER CANCER INSTITUTE, INC., priority 2020, published 2024).
# Where “and” joins values, the source holds several entries; their conditions need not be identical. Equal values may be shown once. Read-outs that look alike come from different tables or passages of the source.
# Key:
# Format in all cases: cell-based
# [1] = molecular target: protein kinases (human kinome) (Homo sapiens, UniProt Q00535); details: for logFC of CDK5: Accession Q00535
# [2] = molecular target: protein kinases (human kinome) (Homo sapiens, UniProt Q14004); details: for logFC CDK13: Accession Q14004-1
# [3] = molecular target: protein kinases (human kinome) (Homo sapiens, UniProt P50613); details: for logFC: CDK7 (P50613) protein abundance, degrader vs DMSO, down; for logFC CDK7: CDK7 P50613
# [4] = molecular target: T1, protein kinases (human kinome) (Homo sapiens, UniProt Q96L34); details: for logFC MARK4: Accession Q96L34-1
# T1 sequence (Q96L34 1-752): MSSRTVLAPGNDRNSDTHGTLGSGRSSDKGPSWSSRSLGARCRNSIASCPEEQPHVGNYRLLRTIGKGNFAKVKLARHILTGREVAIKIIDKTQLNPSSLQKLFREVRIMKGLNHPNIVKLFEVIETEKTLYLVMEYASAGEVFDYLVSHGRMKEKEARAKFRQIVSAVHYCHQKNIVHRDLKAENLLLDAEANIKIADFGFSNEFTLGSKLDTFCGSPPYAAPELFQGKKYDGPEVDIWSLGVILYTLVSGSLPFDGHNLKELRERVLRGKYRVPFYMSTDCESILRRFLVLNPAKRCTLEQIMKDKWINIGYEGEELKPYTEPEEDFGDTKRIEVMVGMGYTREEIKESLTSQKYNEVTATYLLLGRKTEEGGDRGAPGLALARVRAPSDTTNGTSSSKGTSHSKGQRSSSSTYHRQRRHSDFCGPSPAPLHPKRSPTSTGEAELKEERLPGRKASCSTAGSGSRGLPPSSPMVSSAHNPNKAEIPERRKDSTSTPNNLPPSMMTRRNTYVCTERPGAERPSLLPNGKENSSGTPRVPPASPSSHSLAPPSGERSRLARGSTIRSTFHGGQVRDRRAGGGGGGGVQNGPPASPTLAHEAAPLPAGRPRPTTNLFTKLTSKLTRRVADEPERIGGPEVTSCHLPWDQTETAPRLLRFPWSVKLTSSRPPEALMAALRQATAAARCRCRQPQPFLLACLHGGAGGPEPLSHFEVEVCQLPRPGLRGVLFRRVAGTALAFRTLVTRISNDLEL
# [5] = molecular target: protein kinases (human kinome) (Homo sapiens, UniProt Q9NYV4)
# [6] = molecular target: protein kinases (human kinome) (Homo sapiens, UniProt Q9HBH9); details: for logFC MKNK2 (Q9HBH9-1): direction down; for logFC: MKNK2 (Q9HBH9-1)
# [7] = molecular target: protein kinases (human kinome) (Homo sapiens, UniProt Q8NI60)
# [8] = molecular target: protein kinases (human kinome) (Homo sapiens, UniProt Q13233)
# [9] = Accession Q13233, experiment wp056, direction down
# [10] = Accession Q13233, experiment wp107, direction down
# [11] = MAP3K1 (Q13233), experiment wp056
# [12] = MAP3K1 (Q13233), experiment wp107
# [13] = Accession Q13233, experiment wp076, direction down
# [14] = MAP3K1 (Q13233), experiment wp076
# Chain of protein kinases (human kinome) (Homo sapiens, UniProt Q13233) (Q13233 whole entry): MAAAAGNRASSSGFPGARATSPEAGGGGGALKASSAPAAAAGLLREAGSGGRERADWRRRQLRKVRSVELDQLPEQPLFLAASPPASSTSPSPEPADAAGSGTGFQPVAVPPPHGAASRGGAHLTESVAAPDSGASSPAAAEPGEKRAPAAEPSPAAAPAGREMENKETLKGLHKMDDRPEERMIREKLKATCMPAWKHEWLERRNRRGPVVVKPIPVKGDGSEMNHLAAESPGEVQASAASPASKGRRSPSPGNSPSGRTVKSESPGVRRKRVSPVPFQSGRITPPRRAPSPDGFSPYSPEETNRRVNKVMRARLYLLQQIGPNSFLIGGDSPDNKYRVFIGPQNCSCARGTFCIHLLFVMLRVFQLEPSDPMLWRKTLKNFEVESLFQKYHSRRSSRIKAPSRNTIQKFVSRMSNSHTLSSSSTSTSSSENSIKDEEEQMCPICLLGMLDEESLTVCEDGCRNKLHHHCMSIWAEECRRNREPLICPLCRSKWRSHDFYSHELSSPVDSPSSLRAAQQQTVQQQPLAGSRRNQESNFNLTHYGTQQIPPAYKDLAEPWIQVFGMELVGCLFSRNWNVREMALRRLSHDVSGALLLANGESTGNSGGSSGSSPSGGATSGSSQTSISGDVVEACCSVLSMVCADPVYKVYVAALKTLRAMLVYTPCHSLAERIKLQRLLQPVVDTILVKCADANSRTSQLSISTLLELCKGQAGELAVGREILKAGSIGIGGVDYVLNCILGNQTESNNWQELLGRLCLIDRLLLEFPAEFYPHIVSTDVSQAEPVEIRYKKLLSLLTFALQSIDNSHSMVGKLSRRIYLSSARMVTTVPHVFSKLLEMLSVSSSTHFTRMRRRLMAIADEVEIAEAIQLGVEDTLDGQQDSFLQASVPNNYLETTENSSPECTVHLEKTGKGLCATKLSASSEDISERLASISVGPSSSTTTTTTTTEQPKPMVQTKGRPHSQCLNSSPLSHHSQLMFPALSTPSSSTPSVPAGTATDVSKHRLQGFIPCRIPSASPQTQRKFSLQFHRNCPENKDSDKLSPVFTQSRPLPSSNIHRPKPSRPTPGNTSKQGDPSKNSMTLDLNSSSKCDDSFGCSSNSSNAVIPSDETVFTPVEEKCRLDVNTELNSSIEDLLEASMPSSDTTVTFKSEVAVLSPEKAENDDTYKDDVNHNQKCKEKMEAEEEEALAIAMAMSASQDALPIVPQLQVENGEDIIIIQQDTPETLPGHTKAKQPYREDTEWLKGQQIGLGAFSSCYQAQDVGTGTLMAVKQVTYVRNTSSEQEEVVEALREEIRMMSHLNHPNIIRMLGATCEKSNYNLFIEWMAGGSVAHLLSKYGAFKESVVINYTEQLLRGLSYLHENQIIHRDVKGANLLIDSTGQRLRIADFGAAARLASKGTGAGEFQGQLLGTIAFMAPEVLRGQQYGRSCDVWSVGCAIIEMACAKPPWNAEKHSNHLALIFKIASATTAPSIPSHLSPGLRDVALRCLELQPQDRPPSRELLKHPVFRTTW
# Chain of protein kinases (human kinome) (Homo sapiens, UniProt Q00535) (Q00535 whole entry): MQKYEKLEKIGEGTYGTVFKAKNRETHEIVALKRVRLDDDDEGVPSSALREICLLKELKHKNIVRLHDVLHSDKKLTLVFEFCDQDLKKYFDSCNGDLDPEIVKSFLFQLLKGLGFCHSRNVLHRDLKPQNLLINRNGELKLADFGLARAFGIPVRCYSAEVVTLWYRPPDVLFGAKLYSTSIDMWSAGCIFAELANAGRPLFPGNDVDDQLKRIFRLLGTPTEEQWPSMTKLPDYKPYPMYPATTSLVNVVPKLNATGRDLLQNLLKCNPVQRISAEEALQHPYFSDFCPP
# Chain of protein kinases (human kinome) (Homo sapiens, UniProt Q9NYV4) (Q9NYV4 whole entry): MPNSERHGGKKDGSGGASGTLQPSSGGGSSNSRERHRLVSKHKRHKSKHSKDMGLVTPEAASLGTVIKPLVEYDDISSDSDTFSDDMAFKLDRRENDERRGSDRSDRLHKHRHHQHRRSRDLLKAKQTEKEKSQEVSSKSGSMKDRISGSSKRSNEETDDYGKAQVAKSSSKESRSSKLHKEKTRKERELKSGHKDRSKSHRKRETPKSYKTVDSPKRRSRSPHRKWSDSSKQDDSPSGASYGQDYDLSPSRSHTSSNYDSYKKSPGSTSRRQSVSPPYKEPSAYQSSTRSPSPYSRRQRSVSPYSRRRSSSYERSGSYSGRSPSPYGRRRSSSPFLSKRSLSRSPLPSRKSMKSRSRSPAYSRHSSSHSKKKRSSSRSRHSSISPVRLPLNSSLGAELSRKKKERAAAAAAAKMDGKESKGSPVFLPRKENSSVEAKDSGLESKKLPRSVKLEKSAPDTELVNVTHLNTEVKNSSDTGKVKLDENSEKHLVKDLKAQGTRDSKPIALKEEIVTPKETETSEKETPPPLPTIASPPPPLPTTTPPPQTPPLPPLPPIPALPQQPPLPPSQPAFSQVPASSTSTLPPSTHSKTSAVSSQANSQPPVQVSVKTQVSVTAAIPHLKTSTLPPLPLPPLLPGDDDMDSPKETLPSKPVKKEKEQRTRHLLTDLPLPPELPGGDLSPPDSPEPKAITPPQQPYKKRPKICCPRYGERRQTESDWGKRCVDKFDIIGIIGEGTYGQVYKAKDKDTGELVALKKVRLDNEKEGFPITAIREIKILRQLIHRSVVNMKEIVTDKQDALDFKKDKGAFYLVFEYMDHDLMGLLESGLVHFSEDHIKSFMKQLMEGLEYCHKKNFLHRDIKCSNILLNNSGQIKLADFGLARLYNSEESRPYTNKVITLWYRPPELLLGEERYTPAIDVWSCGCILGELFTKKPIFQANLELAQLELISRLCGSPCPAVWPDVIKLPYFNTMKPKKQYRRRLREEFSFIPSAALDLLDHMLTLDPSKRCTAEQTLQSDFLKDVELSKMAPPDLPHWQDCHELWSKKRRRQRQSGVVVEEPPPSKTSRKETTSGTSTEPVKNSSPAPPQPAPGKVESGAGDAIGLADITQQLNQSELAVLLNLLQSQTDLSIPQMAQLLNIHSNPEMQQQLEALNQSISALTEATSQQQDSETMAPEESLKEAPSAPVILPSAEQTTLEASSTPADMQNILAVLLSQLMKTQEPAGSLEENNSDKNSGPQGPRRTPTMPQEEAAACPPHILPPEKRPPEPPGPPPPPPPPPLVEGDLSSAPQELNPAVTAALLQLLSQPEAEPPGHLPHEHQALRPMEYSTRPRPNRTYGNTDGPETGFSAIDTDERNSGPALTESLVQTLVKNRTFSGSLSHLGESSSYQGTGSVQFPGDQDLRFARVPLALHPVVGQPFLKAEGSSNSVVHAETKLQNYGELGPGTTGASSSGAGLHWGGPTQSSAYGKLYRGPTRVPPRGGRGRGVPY
# Chain of protein kinases (human kinome) (Homo sapiens, UniProt Q8NI60) (Q8NI60 163-647): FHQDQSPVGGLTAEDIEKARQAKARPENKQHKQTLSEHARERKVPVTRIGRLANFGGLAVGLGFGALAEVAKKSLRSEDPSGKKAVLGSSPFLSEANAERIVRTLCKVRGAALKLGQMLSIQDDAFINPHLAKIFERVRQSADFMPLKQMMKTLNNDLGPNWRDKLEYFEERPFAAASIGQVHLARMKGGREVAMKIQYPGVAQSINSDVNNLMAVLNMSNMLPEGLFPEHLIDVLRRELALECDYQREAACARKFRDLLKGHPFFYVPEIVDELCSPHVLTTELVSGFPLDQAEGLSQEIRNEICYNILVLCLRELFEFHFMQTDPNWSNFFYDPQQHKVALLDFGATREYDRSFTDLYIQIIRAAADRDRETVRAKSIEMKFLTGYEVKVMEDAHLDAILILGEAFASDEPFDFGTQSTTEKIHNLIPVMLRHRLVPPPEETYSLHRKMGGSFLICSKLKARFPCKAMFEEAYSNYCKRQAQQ
# Chain of protein kinases (human kinome) (Homo sapiens, UniProt Q9HBH9) (Q9HBH9 whole entry): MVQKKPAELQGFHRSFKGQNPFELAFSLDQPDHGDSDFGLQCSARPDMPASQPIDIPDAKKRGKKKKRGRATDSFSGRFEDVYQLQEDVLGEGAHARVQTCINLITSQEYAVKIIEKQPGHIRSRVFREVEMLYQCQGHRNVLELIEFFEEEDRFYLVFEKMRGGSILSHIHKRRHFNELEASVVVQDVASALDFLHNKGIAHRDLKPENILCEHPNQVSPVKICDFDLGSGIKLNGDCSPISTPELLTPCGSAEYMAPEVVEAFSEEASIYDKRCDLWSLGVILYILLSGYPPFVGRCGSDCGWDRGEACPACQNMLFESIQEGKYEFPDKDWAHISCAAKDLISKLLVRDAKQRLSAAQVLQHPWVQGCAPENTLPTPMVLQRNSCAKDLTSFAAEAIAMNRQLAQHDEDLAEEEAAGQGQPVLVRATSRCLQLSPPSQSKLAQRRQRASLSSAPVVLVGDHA
# Chain of protein kinases (human kinome) (Homo sapiens, UniProt P50613) (P50613 whole entry): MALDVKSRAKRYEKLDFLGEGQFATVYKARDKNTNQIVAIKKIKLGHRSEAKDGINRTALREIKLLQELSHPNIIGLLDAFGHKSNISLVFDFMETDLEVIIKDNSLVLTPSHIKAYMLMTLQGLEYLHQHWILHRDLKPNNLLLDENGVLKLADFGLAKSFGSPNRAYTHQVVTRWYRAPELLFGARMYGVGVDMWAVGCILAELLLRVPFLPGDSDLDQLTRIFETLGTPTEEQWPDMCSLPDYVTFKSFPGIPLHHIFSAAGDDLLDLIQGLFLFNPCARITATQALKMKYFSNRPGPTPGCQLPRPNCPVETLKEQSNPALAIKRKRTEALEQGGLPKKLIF
smiles,measurement,setting,value
Cc1ccc(C(=O)Nc2ccc(CN3CCN(CCOCCOCCNC(=O)CNc4cccc5c4C(=O)N(C4CCC(=O)NC4=O)C5=O)CC3)c(C(F)(F)F)c2)cc1C#Cc1cnc2cccnn12 (stereo not drawn) [TL13.150],logFC of CDK5,[1]; experiment wp081,−0.3786
same,logFC CDK5 (Q00535),"[1]; experiment wp081, direction of change down",−0.3786
CC(C)S(=O)(=O)c1ccccc1Nc1nc(Nc2ccc(N3CCN(CCOCCOCCC(=O)NCCNc4cccc5c4CN(C4CCC(=O)NC4=O)C5=O)CC3)cc2)ncc1Cl (stereo not drawn) [TL13.97],logFC CDK13,[2]; experiment wp137,−0.7359
same,logFC CDK13 (Q14004-1),[2]; experiment wp137,−0.7359
same,logFC CDK5 (Q00535),[1]; experiment wp137,−1.114
same,logFC CDK5 (Q00535),"[1]; experiment wp137, direction of change down",−1.114
same,logFC,[3],−1.05
same,logFC CDK7,[3]; experiment wp137,−1.05
same,logFC MARK4,[4]; experiment wp137,−1.74
same,logFC MARK4 (Q96L34-1),[4]; experiment wp137,−1.74
CC(C)S(=O)(=O)c1ccccc1Nc1nc(Nc2ccc(N3CCN(CCOCCNC(=O)CNc4ccc5c(c4)C(=O)N(C4CCC(=O)NC4=O)C5=O)CC3)cc2)ncc1Cl (stereo not drawn) [SK.3.93],logFC CDK13,[2]; experiment wp016,−0.5636
same,logFC CDK13 (Q14004-1),[2]; experiment wp016,−0.5636
same,logFC of CDK5,[1]; experiment wp016,−0.9703
same,logFC CDK5 (Q00535),"[1]; experiment wp016, direction of change down",−0.9703
same,logFC,[3],−0.8057
same,logFC CDK7,[3]; experiment wp016,−0.8057
same,logFC CDK12,"[5]; Accession Q9NYV4-1, experiment wp016",−0.9555
same,logFC CDK12,"[5]; CDK12 (Q9NYV4-1), experiment wp016",−0.9555
Cc1ccc(NC(=O)c2cccc(C(F)(F)F)c2)cc1N1Cc2cnc(Nc3ccc(N4CCN(CCCCCCOc5cccc6c5C(=O)N(C5CCC(=O)NC5=O)C6=O)CC4)nc3)nc2N(C)C1=O (stereo not drawn) [DB0663],logFC MKNK2 (Q9HBH9-1),[6]; Experiment wp045,−0.4798
same,logFC,[6]; experiment wp045,−0.4798
Cc1ncsc1-c1ccc([C@H](C)NC(=O)[C@@H]2C[C@@H](O)CN2C(=O)[C@@H](NC(=O)CCOCCOCCN2CCN(c3ccc(Nc4ncc(Cl)c(Nc5ccccc5S(=O)(=O)C(C)C)n4)cc3)CC2)C(C)(C)C)cc1 [FMF.06.098.1],logFC CDK13,[2]; experiment wp108,−0.3664
same,logFC CDK13,[2]; experiment wp131,−0.4981
same,logFC CDK13 (Q14004-1),[2]; Experiment wp108,−0.3664
same,logFC CDK13 (Q14004-1),[2]; experiment wp131,−0.4981
same,logFC,[3],−0.9016 and −1.137 and −0.9756
same,logFC CDK7,[3]; experiment wp108,−0.9016
same,logFC CDK7,[3]; experiment wp114,−1.137
same,logFC CDK7,[3]; experiment wp131,−0.9756
same,logFC MARK4,[4]; experiment wp108,−0.9041
same,logFC MARK4,[4]; experiment wp114,−0.7224
same,logFC MARK4,[4]; experiment wp131,−1.111
same,logFC MARK4 (Q96L34-1),[4]; Experiment wp108,−0.9041
same,logFC MARK4 (Q96L34-1),[4]; experiment wp114,−0.7224
same,logFC MARK4 (Q96L34-1),[4]; experiment wp131,−1.111
same,logFC CDK12,"[5]; Accession Q9NYV4-1, experiment wp131",−0.5732
same,logFC CDK12,"[5]; CDK12 (Q9NYV4-1), experiment wp131",−0.5732
O=C(COc1cccc2c1C(=O)N(C1CCC(=O)NC1=O)C2=O)NCCCCCCCN1CCc2cc(Nc3ncc(C4CC4)c(NCCCNC(=O)C4CCC4)n3)ccc2C1 (stereo not drawn) [BSJ.04.178],logFC MARK4,[4]; experiment wp134,−0.993
same,logFC MARK4 (Q96L34-1),[4]; experiment wp134,−0.993
C=CCn1c(=O)c2cnc(Nc3ccc(N4CCN(CCCNc5cccc6c5C(=O)N(C5CCC(=O)NC5=O)C6=O)CC4)cc3)nc2n1-c1cccc(C(C)(C)O)n1 (stereo not drawn) [ZNL.02.096],logFC COQ8A (Q8N160-1),[7]; experiment wp056,−0.4317
same,logFC COQ8A (Q8NI60-1),[7]; experiment wp056,−0.4317
same,logFC COQ8A (Q8N160-1),[7]; experiment wp118,−0.423
same,logFC COQ8A (Q8NI60-1),[7]; experiment wp118,−0.423
same,logFC MKNK2 (Q9HBH9-1),[6]; Experiment wp118,−0.4751
same,logFC,[6]; experiment wp118,−0.4751
Nc1ncc(-c2ccc(S(=O)(=O)N(CCCNC(=O)CCOCCOCCOCCOCCOCCNc3cccc4c3C(=O)N(C3CCC(=O)NC3=O)C4=O)C3CC3)cc2)cc1-c1ccc2c(c1)CCNC2=O (stereo not drawn) [WH.10417.099],logFC MAP3K1,[8]; [9],−0.5034
same,logFC MAP3K1,[8]; [10],−0.4673
same,logFC MAP3K1,[8]; [11],−0.5034
same,logFC MAP3K1,[8]; [12],−0.4673
O=C1CCC(N2C(=O)c3cccc(NCCCCCCCCN4CCC(NC(=O)c5[nH]ncc5NC(=O)c5c(Cl)cccc5Cl)CC4)c3C2=O)C(=O)N1 (stereo not drawn) [MFH.5.126.1],logFC MAP3K1,[8]; [13],−0.5947
same,logFC MAP3K1,[8]; [14],−0.5947
same,logFC CDK13,[2]; experiment wp076,−0.4846
same,logFC CDK13 (Q14004-1),[2]; experiment wp076,−0.4846
Cc1ccc(C(=O)Nc2ccc(CN3CCN(CCCOCCOCCOCCNC(=O)COc4cccc5c4C(=O)N(C4CCC(=O)NC4=O)C5=O)CC3)c(C(F)(F)F)c2)cc1C#Cc1cnc2cccnn12 (stereo not drawn) [SB1.G.187],logFC COQ8A (Q8N160-1),[7]; experiment wp056,−0.3885
same,logFC COQ8A (Q8NI60-1),[7]; experiment wp056,−0.3885
same,logFC MAP3K1,[8]; [9],−0.7809
same,logFC MAP3K1,"[8]; Accession Q13233, experiment wp103, direction down",−0.5815
same,logFC MAP3K1,[8]; [10],−0.6693
same,logFC MAP3K1,[8]; [11],−0.7809
same,logFC MAP3K1,"[8]; MAP3K1 (Q13233), experiment wp103",−0.5815
same,logFC MAP3K1,[8]; [12],−0.6693
same,logFC of CDK5,[1]; experiment wp056,−0.4804
same,logFC of CDK5,[1]; experiment wp103,−0.5924
same,logFC of CDK5,[1]; experiment wp105,−0.6053
same,logFC CDK5 (Q00535),"[1]; Experiment wp105, direction of change down",−0.6053
same,logFC CDK5 (Q00535),[1]; Experiment wp107,−0.6778
same,logFC CDK5 (Q00535),[1]; Experiment wp172,−0.8938
same,logFC CDK5 (Q00535),"[1]; experiment wp056, direction of change down",−0.4804
same,logFC CDK5 (Q00535),"[1]; experiment wp103, direction of change down",−0.5924
same,logFC CDK5 (Q00535),"[1]; experiment wp107, direction of change down",−0.6778
same,logFC CDK5 (Q00535),"[1]; experiment wp172, direction of change down",−0.8938
Cc1cnc(Nc2ccc(N3CCN(CCCCCCC(=O)N[C@H](C(=O)N4C[C@H](O)C[C@H]4C(=O)N[C@@H](C)c4ccc(-c5scnc5C)cc4)C(C)(C)C)CC3)cc2)nc1Nc1cccc(S(=O)(=O)NC(C)(C)C)c1 [JWG.123],logFC MARK4,[4]; experiment wp195,−1.532
same,logFC MARK4 (Q96L34-1),[4]; Experiment wp195,−1.532
CC(=O)c1c(C)c2cnc(Nc3ccc(N4CCN(CCOCCOCCOCCNC(=O)COc5cccc6c5C(=O)N(C5CCC(=O)NC5=O)C6=O)CC4)cn3)nc2n(C2CCCC2)c1=O (stereo not drawn) [BSJ.03.123],logFC COQ8A (Q8N160-1),[7]; experiment wp084,−0.4611
same,logFC COQ8A (Q8NI60-1),[7]; experiment wp084,−0.4611
"Cc1ncsc1-c1ccc([C@H](C)NC(=O)[C@@H]2C[C@@H](O)CN2C(=O)[C@@H](NC(=O)CCCCCN2CCN(c3ccc(Nc4ncc5scc(-c6cccc(NS(C)(=O)=O)c6)c5n4)cc3)CC2)C(C)(C)C)cc1 [RSS0680, (2S,4R)-1-((S)-3,3-Dimethyl-2-(6-(4-(4-((7-(3-(methylsulfonamido)phenyl)thieno[3,2-d]pyrimidin-2-yl)amino)phenyl)piperazin-1-yl)hexanamido)butanoyl)-4-hydroxy-N—((S)-1-(4-(4-methylthiazol-5yl)phenyl)ethyl)pyrrolidine-2-carboxamide]",logFC MKNK2 (Q9HBH9-1),[6]; Experiment wp080,−0.4987
same,logFC MKNK2 (Q9HBH9-1),[6]; Experiment wp117,−0.5075
same,logFC,[6]; experiment wp080,−0.4987
same,logFC,[6]; experiment wp117,−0.5075
same,logFC,[3],−1.017 and −1.219
same,logFC CDK7,[3]; experiment wp080,−1.017
same,logFC CDK7,[3]; experiment wp117,−1.219
same,logFC MARK4,[4]; experiment wp080,−0.4537
same,logFC MARK4 (Q96L34-1),[4]; experiment wp080,−0.4537
Cc1ncsc1-c1ccc([C@H](C)NC(=O)[C@@H]2C[C@@H](O)CN2C(=O)[C@@H](NC(=O)CCCCCN2CCc3cc(Nc4ncc(C5CC5)c(NCCCNC(=O)C5CCC5)n4)ccc3C2)C(C)(C)C)cc1 [BSJ.05.026],logFC MARK4,[4]; experiment wp195,−1.571
same,logFC MARK4 (Q96L34-1),[4]; Experiment wp195,−1.571
CCc1cnn2c(N(Cc3ccc(N)nc3)C(=O)CCOCCOCCOCCNC(=O)CNc3cccc4c3C(=O)N(C3CCC(=O)NC3=O)C4=O)cc(N3CCCC[C@H]3CCO)nc12 (stereo partly drawn) [MFH.5.115.2],logFC MAP3K1,[8]; [13],−0.3528
same,logFC MAP3K1,[8]; [14],−0.3528
